{"source": "patent US10188858B2", "about": "“Method and device for treating a tissue with a high frequency electromagnetic field” (University of Cincinnati, priority 2013, dated 2019)", "key": {"[1]": {"test_system": "MEK", "assay": "Total and phosphorylated MEK levels (sandwich ELISA) with inhibitors", "format": "cell-based, C57 mice", "text": "(§1) Murine microvascular endothelial cells were isolated from the lungs of C57 mice (Jackson Laboratory, Maine, USA) as described previously. Cells were doubly sorted using PECAM-1- and ICAM-2-conjugated magnetic beads (Invitrogen Corporation, CA, USA) and cultured in medium M199 (HyClone, UT, USA) supplemented with 10% fetal bovine serum (FBS; Atlanta Biologicals, GA, USA), 1% antibiotic/antimycotic (AB/AM; Atlanta Biologicals, USA), 1% heparin (Sigma-Aldrich, MO, USA) and 1Ong/mL endothelial growth factor supplement (Sigma-Aldrich, MO, USA). Cells from passages 4-9 were used. All experiments were conducted in the culture medium (medium M199, 10% FBS, 1% antibiotic/antimycotic and 1% heparin) without additional growth factor supplementation.\n(§2) Capillary morphogenesis, and MAPK pathways activation were quantified following 12 hours of EF exposure, and the analyses of VEGF expression, cell proliferation and apoptosis were conducted up to 24 hours of EF exposure. The experimental groups included endothelial cells exposed to high frequency EF, low frequency EF and a group not exposed to EF.\n(§3) After EF exposure, cells were lysed using buffer containing 20 mM Tris-HCl, 150 mM NaCl, 1 mM Na2EDTA, 1 mM EGTA, 1% Triton, 2.5 mM sodium pyrophosphate, 1 mM beta-glycerophosphate, 1 mM Na3VO4, 1 μg/ml leupeptin and 1 mM phenylmethylsulfonyl fluoride (PMSF). The total protein concentration in each sample lysate was determined using CoomassiePlus Assay Kit (Thermo Fisher Scientific, IL, USA). 10 μg of total protein was used for all MAPK pathway ELISAs. The total and phosphorylated levels of ERK, MEK, p38 and JNK proteins were quantified using appropriate sandwich ELISA kits (Cell Signaling Technology, MA, USA). MEK-cRaf complex levels and free (unbound) MEK levels were quantified according to previously described protocols with modifications. The total MEK levels are presented in optical densities and phosphorylated MEK, MEK-cRaf and pMEK-cRaf levels are normalized to total MEK levels. For negative control, β-actin (Invitrogen, USA) was immunoprecipitated from the lysate and subjected to ELISAs. All ELISA assays were performed in duplicates or triplicates, with all experiments repeated at least N=6 times.\nTo determine the role of VEGF signaling in EF-mediated angiogenic responses, experiments were repeated in the presence of 0.1 μg/mL soluble anti-mouse VEGF blocking antibody (R&D Systems, MN, USA), or 5 μM SU5416 (Sigma-Aldrich, MO, USA), a specific pharmacological VEGFR2inhibitor, or in the presence of 10 μM U0126 MEK inhibitor (Sigma-Aldrich, MO, USA). […] To examine the role of PI3K, Ca^2+ and eNOS signaling in EF-mediated MEK activation, cells were treated with 10 μM LY294002 (PI3K inhibitor), 10 μM BAPTA (Ca^2+ chelator), or 200 μM Nω-Nitro-L-arginine methyl ester hydrochloride (L-NAME, eNOS inhibitor),respectively, and the total and phosphorylated MEK levels were measured using ELISA. All inhibitors were added to the culture supernatant and pre-incubated for one hour to equilibrate respective target blocking prior to EF exposure. All analyses were done in duplicates/triplicates, and all inhibitor experiments were repeated at least N=3 times."}, "[2]": {"test_system": "VEGF", "assay": "VEGF protein release by endothelial cells (ELISA) with inhibitors", "format": "cell-based, C57 mice", "text": "Cells from passages 4-9 were used. […] VEGF and PIGF are two major angiogenic cytokines acting through VEGF receptors pathway. VEGF binds to both VEGFR1 and VEGFR2 receptors, although signals through VEGFR2. In contrast, PIGF which only binds to and signals through VEGFR1. To determine the effect of EF on the VEGF and PIGF protein release by endothelial cells, culture medium samples (at least N=6 separate experiments) were used to measure VEGF and PIGF protein levels using appropriate ELISA kits (R&D Systems, MN, USA)."}, "[3]": {"test_system": "Murine microvascular endothelial cells", "assay": "In vitro capillary morphogenesis (nanofiber-based angiogenesis assay) with inhibitors", "format": "cell-based, C57 mice", "description": "Cells from passages 4-9 were used. […] Capillary morphogenesis was assessed using nanofiber-based angiogenesis assay previously developed in the lab, in which endothelial cells seeded on RAD16-II peptide nanofiber hydrogel (SynBioSci Corporation, CA, USA) undergo spontaneous capillary morphogenesis with clearly identifiable lumens in the absence of external angiogenic growth factors. Endothelial cells were seeded on the surface of 1% (w/v) hydrogel in cell culture inserts (Millipore, MA, USA) at a seeding density of 10^5 cells/cm^2. Cells seeded on 5% gelatin-coated inserts were used as a negative control. Cells were labeled with CellTracker dye (Invitrogen, USA) before seeding or with Phalloidin-TRITC (Sigma Aldrich, St Louis, Mo., USA). After EF exposure, samples (at least N=10 separate EF exposure experiments per group) were fixed with 2% formaldehyde, and images of the sample surface (n=5 per sample) were captured at 20× magnification using an inverted fluorescent microscope (Olympus IX81; Olympus, Pa., USA). The characteristic size of capillary-like networks was determined using correlation analysis and custom-written MATLAB code (The Math Works, MA, USA)."}, "[4]": {"test_system": "MEK-cRaf complex", "settings": "high frequency EF in the presence of 10 μM U0126, compared to low frequency or no-EF groups", "text": "as §1, §2\nas §3, with “All ELISA assays were performed in duplicates or triplicates, with all experiments repeated at least N=6 times.” left out"}, "[5]": {"settings": "10 μM U0126, all experimental groups, compared to no inhibitor controls"}, "[6]": {"settings": "10 μM U0126, high frequency EF vs low frequency EF and no-EF groups"}}, "data": [{"smiles": "COC(=O)[C@@H](N)CCCNC(=N)N[N+](=O)[O-].Cl", "note": "[L-NAME, Nω-Nitro-L-arginine methyl ester hydrochloride]", "values": [{"measurement": "EF-induced increase in pMEK", "setting": "[1]; 200 μM L-NAME, high frequency EF", "value": "abolished"}, {"measurement": "base pMEK levels", "setting": "[1]; 200 μM L-NAME, no-EF controls", "value": "did not affect"}]}, {"smiles": "Cc1cc(C)c(/C=C2\\C(=O)Nc3ccccc32)[nH]1", "note": "[SU5416]", "values": [{"measurement": "VEGF release", "setting": "[2]; 5 μM SU5416, all experimental groups, including no-EF controls", "value": "significantly reduced"}, {"measurement": "capillary morphogenesis", "setting": "[3]; 5 μM SU5416, all experimental groups, including no-EF controls, 12 hours", "value": "completely abolished"}, {"measurement": "high frequency EF-induced MEK phosphorylation", "setting": "[1]; 5 μM SU5416, 7.5 GHz EF vs low frequency and no-EF controls", "value": "did not block"}]}, {"smiles": "O=C(O)CN(CC(=O)O)c1ccccc1OCCOc1ccccc1N(CC(=O)O)CC(=O)O", "note": "[BAPTA]", "values": [{"measurement": "MEK phosphorylation levels", "setting": "[1]; 10 μM BAPTA, high frequency EF and no-EF groups", "value": "significantly reduced"}, {"measurement": "phosphorylated MEK levels in high frequency EF group compared to no-EF controls", "setting": "[1]; in the presence of 10 μM BAPTA", "value": "lower"}]}, {"smiles": "N#CC(=C(/N)Sc1ccccc1N)/C(C#N)=C(\\N)Sc1ccccc1N", "note": "[U0126]", "values": [{"measurement": "free MEK levels", "setting": "[4]", "value": "increased"}, {"measurement": "phosphorylation of MEK-cRaf complex (pMEK-cRaf)", "setting": "[4]", "value": "reduced"}, {"measurement": "protein levels of MEK-cRaf complex", "setting": "[4]", "value": "reduced"}, {"measurement": "VEGF release by endothelial cells", "setting": "[2]; [5]", "value": "significantly reduced"}, {"measurement": "effect of high frequency EF on VEGF release", "setting": "[2]; [6]", "value": "effectively reversed"}, {"measurement": "capillary morphogenesis (network size)", "setting": "[3]; [5]", "value": "significantly reduced"}, {"measurement": "effect of high frequency EF on capillary morphogenesis", "setting": "[3]; [6]", "value": "effectively reversed"}, {"measurement": "total concentration of MEK", "setting": "[1]; presence of 10 μM U0126", "value": "did not affect"}]}]}
